Test results taken from patent publication US11046657B2, “Pyrimidinone derivatives and uses thereof to neutralize the biological activity of chemokines” (Centre National de la Recherche Scientifique (CNRS), priority 2016, dated 2021).
Entries after “also recorded” stand apart in the source; their conditions may differ.

Key:
Stability after 24 h = format: physicochemical; settings: monitored after 24 h
Procedure: Their solubility in assay media was evaluated. (2-Hydroxypropyl)-o-cyclodextrin (Cdx) was used as excipient because of its low toxicity and its capacity to increase bioavailability. […] The compound stability was evaluated in PBS only and in PBS/Cdx.

[1] = test system: Balb/c mice topically administered MC903; test: Murine model of atopic dermatitis induced by MC903; format: in vivo, mouse; settings: 350 μmol/kg topical in acetone/olive oil, 2 h before each MC903 application, D1-D13
Procedure: FIG. 2A. In vivo effect of a topical treatment with chalcone 4 and compound (1). Mouse ears were treated with MC903 (calcipotriol, 2 nmol/ear or 4 nmol/ear) or its solvent (ethanol EtOH) together with 350 μmol/kg chalcone 4 (upper row of images) or compound (1) (lower row of images) or solvent (acetone/olive oil 50/50, AOO). Chalcone 4 and compound (1) were dissolved in AOO and administered topically 2 h before each MC903 application. MC903 was dissolved in EtOH and topically applied.
FIG. 2B. Increase in ear thickness over time (D1-D13) was determined with a caliper on animals treated with MC903 or solvent (EtOH), and compound (1) or solvent (AOO) as described for FIG. 2A. Data points are means and bars are S.E.M. values of n=6 determinations.
FIG. 2C. Increase in ear thickness over time (D1-D13) was determined with a caliper on animals treated with MC903 or solvent (EtOH) and […] or solvent (AOO). Data points are means and bars are S.E.M. values of n=6 determinations.
The in vivo activity of compound (1) was tested in a murine model of atopic dermatitis as previously described (Zhang et al, Proc Nat Acad Si USA 2009, 106, 1536-41). Briefly, Balb/c mice were topically administered with a vitamin D analogue, MC903 (2 or 4 nmol/ear) every other day for 13 days. […]

[2] = test system: Balb/c mice administered LPS; test: LPS-induced mouse model of neutrophilic airway inflammation (COPD); format: in vivo; settings: 350 μmol/kg i.p. in 1% CMC, 2 h before LPS; lavage 24 h after LPS
Procedure: In vivo effect of a systemic treatment with chalcone-4 or compound (1) in a LPS-induced mouse model of neutrophilic airway inflammation. Balb/c mice were administered intranasally with LPS (1 μg, white block) or saline (control). Chalcone-4 (gray block) or compound (1) (black block) (350 μmol/kg each) suspended in 1% CMC or solvent (CMC alone) were administered intraperitoneally 2 h before LPS. Neutrophil recruitment is shown, inhibited by chalcone 4 and compound (1). Data points are means and bars are S.E.M. values of n=6 determinations.
The in vivo activity of compound (1) was tested in the murine model of neutrophilic airway inflammation induced by lipopolysaccharide (LPS) as previously described (Flacher et al, ACS Chem Biol. 2015, 10:2697-705)^14.
Briefly, Balb/c mice were administered intranasally with LPS (lipopolysaccharide from E. coli, O55B5, 1 μg, Sigma Aldrich) or saline. Treatments with (1) or Chalcone-4 (350 μmol/kg) in 1% CMC (carboxymethylcellulose) were administered by the intraperitoneal route 2 h before LPS instillation. Bronchoalveolar lavage was performed 24 h after LPS, and neutrophil, lymphocyte, eosinophil and macrophage numbers quantified.

CXCL12 = settings: cited from earlier work
[3] = test system: human peripheral blood CD4+ lymphocytes; settings: cited from earlier work
CXCR4 = settings: cited from earlier work
CCL17 = target: T1, CCL17 (Homo sapiens, UniProt Q92583); test: Selectivity towards chemokine CCL17; settings: 5 μM
T1 sequence (Q92583 24-94): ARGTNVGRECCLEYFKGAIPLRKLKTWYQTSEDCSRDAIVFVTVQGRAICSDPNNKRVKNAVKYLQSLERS
Procedure: Furthermore, the selectivity of (1) was also evaluated towards two other chemokines, namely CCL17 and CCL22, with no activity at 5 μM (data not shown).

C57BL/6J mice = test: Fentanyl-induced hyperalgesia, tail immersion test

Stability PBS/Cdx (Stability after 24 h) [%] | Stability PBS (Stability after 24 h) [%] | Activity towards CCL17 (CCL17) | Structure (SMILES) | Atopic response to MC903 (ear thickness) [1] | Inhibition of neutrophil recruitment [2] [%] | Intracellular calcium responses (CXCL12) | Chemotaxis of human peripheral blood CD4+ lymphocytes [3] | CXCR4 internalization in response to CXCL12 (CXCR4) | Secondary hyperalgesia induced by fentanyl (C57BL/6J mice; 10 mg/kg i.p., co-administered with fentanyl) | Nociceptive threshold, compound alone (C57BL/6J mice; 50 mg/kg, i.p., without fentanyl)
100 | 100 |  | COc1cc(/C=C/C(=O)c2ccc(Cl)cc2)ccc1O [Chalcone-4, (E)-1-(4-Chlorophenyl)-3-(4-hydroxy-3-methoxyphenyl)prop-2-en-1-one, reference compound] | totally abolished the atopic response to MC903 | 30 | inhibits intracellular calcium responses | blocks chemotaxis | prevents CXCR4 internalization |  | 
100 | 100 | no activity | COc1cc(-c2cc(-c3ccc(Cl)cc3)nc(=O)[nH]2)ccc1O [compound (1), 4-(4-Chlorophenyl)-6-(4-hydroxy-3-methoxyphenyl)pyrimidin-2(1H)-one] | inhibits atopic dermatitis induced by MC903; also recorded: totally abolished the atopic response to MC903 | 43 |  |  |  | completely prevented the development of secondary hyperalgesia | no effect on the nociceptive threshold
